Consider one molecule from article PMC9887192, “Lethal activity of BRD4 PROTAC degrader QCA570 against bladder cancer cells” (Frontiers in Chemistry, 2023).

The assay addresses BRD4 (Homo sapiens, UniProt O60885). As to the kind of experiment: PROTAC degradation in bladder cancer cells by Western blot; blocked by JQ1, MG132 and MLN4924. The assay is classed as cell-based.

A word on the DC50: it is the midpoint of the concentration-degradation curve. A lower DC50 goes with degradation at low concentration. For `Cc1nnc2n1-c1sc(C#Cc3cnn(CCCC#Cc4cccc5c4CN(C4CCC(=O)NC4=O)C5=O)c3)c(Cc3ccccc3)c1COC2` (stereo not shown) [QCA570], the DC50 was roughly 1 nM.
